Some test systems named below: M14 melanoma; PC-3 prostate; ACHN renal; MDA-MB-231 breast; SK-OV-3 ovarian; SF-539 CNS; OVCAR-8 ovarian; HCC-2998 colon; MALME-3M melanoma; 786-0 renal; HS 578T breast; UACC-62 melanoma; KM12 colon; MCF7 breast; K-562 leukemia; HCT-116 colon; SK-MEL-2 melanoma; U251 CNS; RXF 393 renal; NCI-H23 lung.
Common to all, as to test: NCI-60 cell line screen, 48 h

Molecules are shown by their SMILES.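 Values below derive from 48-hour exposures of cells grown in 96-well plates, with endpoints linearly interpolated between the two concentrations bracketing the appropriate inhibition level. Definition used: TGI = concentration required for complete inhibition of growth.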

For the compound `CN(C)c1ccc(/C=C/C(=O)CC(=O)/C=C/c2ccc(N(C)C)cc2)cc1`, the TGI with M14 melanoma, in the test on PC-3 prostate, with ACHN renal, with MDA-MB-231 breast, in the test on SK-OV-3 ovarian and with SF-539 CNS was over 100 µM throughout. The TGI in the test on OVCAR-8 ovarian, in the test with HCC-2998 colon, in the test on MALME-3M melanoma, in the test on 786-0 renal, with HS 578T breast and in the test on UACC-62 melanoma was over 100 µM throughout. The TGI in the test with KM12 colon, in the test with MCF7 breast, with K-562 leukemia, in the test on HCT-116 colon, in the test on SK-MEL-2 melanoma and with U251 CNS was over 100 µM each time. For the same compound, the TGI in the test with RXF 393 renal is over 100 µM.
In the case of `COC(=O)[C@H](Cc1ccccc1)NP(=O)(OCCC#N)OCC1OC(n2cc(C)c(=O)[nH]c2=O)CC1N=[N+]=[N-]` (some centres not stated), the TGI in the test on M14 melanoma, with PC-3 prostate, in the test on ACHN renal, in the test with MDA-MB-231 breast, in the test on SK-OV-3 ovarian and in the test with OVCAR-8 ovarian was over 100 µM each time. Further, the TGI in the test with HCC-2998 colon, in the test on NCI-H23 lung, in the test with MALME-3M melanoma, in the test on 786-0 renal, with HS 578T breast and in the test on UACC-62 melanoma was over 100 µM throughout. Besides, the TGI in the test on KM12 colon, in the test on MCF7 breast, with K-562 leukemia, with HCT-116 colon, in the test on SK-MEL-2 melanoma and in the test on U251 CNS was over 100 µM in each case. For the same compound, the TGI with RXF 393 renal is over 100 µM.
As to `COC(=O)C1CC2CCC1(O[Si](C(C)C)(C(C)C)C(C)C)C(O)C2` (configuration not stated), the TGI was 32.7 µM with M14 melanoma; 47.7 µM with PC-3 prostate; 80.4 µM in the test on ACHN renal; 38.9 µM with MDA-MB-231 breast; over 100 µM with SK-OV-3 ovarian; 28.1 µM in the test with OVCAR-8 ovarian. The TGI in the test on HCC-2998 colon was 46 µM; with NCI-H23 lung it was 44.9 µM; with MALME-3M melanoma it was over 100 µM; in the test on 786-0 renal, 31.5 µM; with HS 578T breast, 99.6 µM; with UACC-62 melanoma it was over 100 µM. In addition, the TGI was 38.6 µM in the test on KM12 colon; 28.4 µM in the test with MCF7 breast; 28.9 µM in the test on K-562 leukemia; 36.2 µM with HCT-116 colon; 32.1 µM with SK-MEL-2 melanoma; 31.9 µM in the test on U251 CNS. For the same compound, the TGI in the test on RXF 393 renal is 28.8 µM.
Consider `C=C[C@@]1(C)CC[C@@H]2[C@@]3(C1)O[C@H]3CC1[C@](C)(C(=O)OC)CCC[C@@]12C` (some centres not stated), for which the TGI was 39.7 µM in the test on M14 melanoma; over 100 µM in the test with PC-3 prostate; 29.5 µM in the test with ACHN renal; 58.1 µM in the test with MDA-MB-231 breast; 69.6 µM in the test with SK-OV-3 ovarian; 40.9 µM with OVCAR-8 ovarian. The TGI in the test on HCC-2998 colon was 31.6 µM; in the test on NCI-H23 lung, 57.2 µM; in the test on MALME-3M melanoma, 35 µM; in the test with 786-0 renal it was 36.8 µM; in the test with HS 578T breast it was 44.2 µM; with UACC-62 melanoma, over 100 µM. Moreover, the TGI in the test with KM12 colon is over 100 µM; with MCF7 breast, 33.2 µM; in the test with K-562 leukemia it was over 100 µM; in the test on HCT-116 colon, 28.1 µM; in the test with SK-MEL-2 melanoma, 41.4 µM; in the test with U251 CNS, 49.6 µM. Also, the TGI in the test on RXF 393 renal is 33 µM.
Regarding `CC[C@@]1(O)C(=O)OCc2c1cc1n(c2=O)Cc2c-1nc1ccccc1c2/C=N\NC(=O)C(N)CO` (some centres not stated), the TGI is 7.51 µM in the test with M14 melanoma; over 100 µM in the test on PC-3 prostate; over 100 µM in the test with MDA-MB-231 breast; over 100 µM with SK-OV-3 ovarian; 0.763 µM in the test with SF-539 CNS; 39.6 µM with OVCAR-8 ovarian. In addition, the TGI was over 100 µM in the test with HCC-2998 colon; 5.38 µM with NCI-H23 lung; over 100 µM in the test with MALME-3M melanoma; 13 µM with 786-0 renal; over 100 µM in the test with HS 578T breast; 0.419 µM in the test on UACC-62 melanoma. Further, the TGI is over 44 µM in the test on KM12 colon; 21.3 µM with MCF7 breast; over 100 µM with K-562 leukemia; 22.8 µM in the test with HCT-116 colon; over 100 µM in the test with SK-MEL-2 melanoma; over 20.9 µM with U251 CNS. In the test with RXF 393 renal, this compound returned a TGI of 7.73 µM.
Take `Cc1c(C)c(C)c(-n2c(=O)n(C)c(=O)n2-n2c(=O)n(C)c(=O)n2-c2c(C)c(C)c(C)c(C)c2C)c(C)c1C`: the TGI with M14 melanoma, in the test on PC-3 prostate, in the test with MDA-MB-231 breast, with SK-OV-3 ovarian, in the test on SF-539 CNS and with OVCAR-8 ovarian was over 100 µM throughout. Moreover, the TGI with HCC-2998 colon, with MALME-3M melanoma, with 786-0 renal, in the test on HS 578T breast, in the test with UACC-62 melanoma and with KM12 colon was over 100 µM each time. Also, the TGI in the test with MCF7 breast, in the test with K-562 leukemia, with HCT-116 colon, in the test on SK-MEL-2 melanoma, with U251 CNS and with RXF 393 renal was over 100 µM in each case.
As to `CCCc1cc(=O)oc2c3c(c4c(c12)OC(C)(C)CC4)O[C@@H](C)[C@H](C)[C@H]3O`, the TGI is 28.3 µM with M14 melanoma; 15.5 µM in the test with PC-3 prostate; 11.1 µM in the test with MDA-MB-231 breast; 32.6 µM in the test on SK-OV-3 ovarian; 38.2 µM with SF-539 CNS; 29.9 µM with OVCAR-8 ovarian. The TGI in the test on HCC-2998 colon is 28.3 µM; in the test with NCI-H23 lung, 25 µM; in the test on MALME-3M melanoma, 28 µM; with 786-0 renal, 18.1 µM; in the test with HS 578T breast it was 37.5 µM; with UACC-62 melanoma it was 21.1 µM. Moreover, the TGI in the test on KM12 colon worked out at 29.9 µM; with MCF7 breast, 47.3 µM; in the test on K-562 leukemia it was 7.17 µM; with HCT-116 colon, 22.2 µM; in the test with SK-MEL-2 melanoma, 29.9 µM; with U251 CNS it was 29.6 µM. Besides, in the test on RXF 393 renal, the TGI stood at 27.1 µM.

For the origin of these results see PubChem BioAssay (NCI).
